Reference: patent publication US11142515B2, “Pyrazolyl-ureas as kinase inhibitors” (RESPIVERT LIMITED, priority 2014, dated 2021)
pIC50: −log10 of the molar value.

Tests used:
Syk = molecular target: T1, Syk (Homo sapiens, UniProt P43405); assay: Syk enzyme inhibition (Z-LYTE FRET); assay type: biochemical; details: Table 2A
T1 construct: purchased Life Technologies
How it was run: (§1)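 Z-LYTE readout: coumarin-to-fluorescein ratio after 1 h protease cleavage of unphosphorylated peptide. Kinase reactions ran 1 h at RT with ATP stock at 800 μM (c-Src) or 60 μM (Hck, Syk), following 2 h compound preincubation over 0.0012–40 μg/mL; enzyme stocks 1000/1400/2000 ng/mL.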

p38MAPKγ (MAPK12) = molecular target: T2, p38MAPKγ (MAPK12) (Homo sapiens, UniProt P53778); assay: p38 MAPKγ enzyme inhibition (Z-LYTE FRET); assay type: biochemical; details: Table 2A; read-out: IC50 Values for Enzyme Inhibition p38 MAPKγ
T2 construct: purchased Life Technologies
T2 sequence (P53778 1-367): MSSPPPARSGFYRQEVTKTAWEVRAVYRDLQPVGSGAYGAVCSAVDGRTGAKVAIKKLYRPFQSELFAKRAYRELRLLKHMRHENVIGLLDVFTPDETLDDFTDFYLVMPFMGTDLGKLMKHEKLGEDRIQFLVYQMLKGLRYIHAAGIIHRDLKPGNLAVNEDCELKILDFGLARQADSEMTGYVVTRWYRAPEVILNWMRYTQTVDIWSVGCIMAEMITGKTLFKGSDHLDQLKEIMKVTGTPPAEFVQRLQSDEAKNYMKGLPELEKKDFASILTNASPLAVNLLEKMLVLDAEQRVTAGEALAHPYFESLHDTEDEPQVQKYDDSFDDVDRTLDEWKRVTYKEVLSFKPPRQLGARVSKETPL
How it was run: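 Enzyme (added at 800 ng/mL) was preincubated 2 h at RT with compound (solutions of 40 to 0.0012 μg/mL), then FRET peptide (8 μM) and ATP (400 μM), both as added, were reacted 1 h at RT. Protease development followed for 1 h; phosphorylation was read as the coumarin/fluorescein emission ratio.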

c-Src = molecular target: T3, c-Src (Homo sapiens, UniProt P12931); assay: c-Src enzyme inhibition (Z-LYTE FRET); assay type: biochemical; details: Table 2A
T3 construct: purchased Life Technologies
T3 sequence (P12931 whole entry): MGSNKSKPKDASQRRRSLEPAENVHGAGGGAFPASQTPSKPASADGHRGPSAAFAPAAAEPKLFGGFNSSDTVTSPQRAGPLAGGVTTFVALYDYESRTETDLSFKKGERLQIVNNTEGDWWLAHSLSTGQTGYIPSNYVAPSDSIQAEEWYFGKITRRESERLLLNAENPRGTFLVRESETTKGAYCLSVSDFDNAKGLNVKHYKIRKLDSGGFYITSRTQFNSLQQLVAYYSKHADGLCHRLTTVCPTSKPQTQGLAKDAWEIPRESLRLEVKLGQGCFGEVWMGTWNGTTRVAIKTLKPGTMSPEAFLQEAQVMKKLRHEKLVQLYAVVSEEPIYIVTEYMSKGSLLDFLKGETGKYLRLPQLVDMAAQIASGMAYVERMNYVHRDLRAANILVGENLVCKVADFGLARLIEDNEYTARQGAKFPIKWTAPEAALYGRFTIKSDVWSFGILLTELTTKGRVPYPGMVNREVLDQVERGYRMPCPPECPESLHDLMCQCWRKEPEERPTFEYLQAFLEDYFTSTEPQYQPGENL
How it was run: as §1

d-U937 cells = assay: Cell viability: MTT assay in differentiated U937 cells; assay type: cell-based, human; details: 10 μg/mL
How it was run: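 Viability loss, calculated against 0.5% DMSO vehicle (gains reported negative), was measured by MTT reduction (1 h) and A550 after DMSO solubilisation. Compound exposure of d-U937 cells was 10 μg/mL final, for 24 h in 10% FCS or 4 h in 5% FCS RPMI1640.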

Compound | pIC50 (Syk) | pIC50 (p38MAPKγ (MAPK12)) | pIC50 (c-Src) | MTT Assay Cell viability at time point indicated in d-U937 Cells, 4 h (d-U937 cells) | MTT Assay Cell viability at time point indicated in d-U937 Cells, 24 h (d-U937 cells)
COc1ccc(-n2nc(C(C)(C)C)cc2NC(=O)Nc2ccc(OCc3ccnc(Nc4cnccn4)c3)c3ccccc23)cc1 [Example 38] | < 4.79 | < 4.79 | 6.82 | − (−ve and +ve indicate the value is below and above, respectively, the no significant effect threshold defined as 30% inhibition at 10 μg/mL at the time point indicated) | − (−ve and +ve indicate the value is below and above, respectively, the no significant effect threshold defined as 30% inhibition at 10 μg/mL at the time point indicated)
COc1ccc(-n2nc(C(C)(C)C)cc2NC(=O)Nc2ccc(OCc3ccnc(Nc4cnccn4)c3)c3ccccc23)cc1C [Example 39] | < 4.80 | 6.51 | 7.09 | − (−ve and +ve indicate the value is below and above, respectively, the no significant effect threshold defined as 30% inhibition at 10 μg/mL at the time point indicated) | − (−ve and +ve indicate the value is below and above, respectively, the no significant effect threshold defined as 30% inhibition at 10 μg/mL at the time point indicated)
Cc1cccc(-n2nc(C(C)(C)C)cc2NC(=O)Nc2ccc(OCc3ccnc(Nc4cnccn4)c3)c3ccccc23)c1 [Example 40] | < 4.78 | 7.10 | 7.07 | − (−ve and +ve indicate the value is below and above, respectively, the no significant effect threshold defined as 30% inhibition at 10 μg/mL at the time point indicated) | − (−ve and +ve indicate the value is below and above, respectively, the no significant effect threshold defined as 30% inhibition at 10 μg/mL at the time point indicated)
CC(C)c1ccc(-n2nc(C(C)(C)C)cc2NC(=O)Nc2ccc(OCc3ccnc(Nc4cnccn4)c3)c3ccccc23)cc1 [Example 41] | 5.21 | < 4.80 | 4.96 | − (−ve and +ve indicate the value is below and above, respectively, the no significant effect threshold defined as 30% inhibition at 10 μg/mL at the time point indicated) | − (−ve and +ve indicate the value is below and above, respectively, the no significant effect threshold defined as 30% inhibition at 10 μg/mL at the time point indicated)
CCc1ccc(-n2nc(C(C)(C)C)cc2NC(=O)Nc2ccc(OCc3ccnc(Nc4cnccn4)c3)c3ccccc23)cc1 [Example 42] | < 4.79 | 6.28 | 6.27 | − (−ve and +ve indicate the value is below and above, respectively, the no significant effect threshold defined as 30% inhibition at 10 μg/mL at the time point indicated) | − (−ve and +ve indicate the value is below and above, respectively, the no significant effect threshold defined as 30% inhibition at 10 μg/mL at the time point indicated)
COCCNC(=O)c1cnc(Nc2cc(COc3ccc(NC(=O)Nc4cc(C(C)(C)C)nn4-c4ccc(C)s4)c4ccccc34)ccn2)cn1 [Example 43] | < 4.85 | 6.40 | 7.14 | − (−ve and +ve indicate the value is below and above, respectively, the no significant effect threshold defined as 30% inhibition at 10 μg/mL at the time point indicated) | − (−ve and +ve indicate the value is below and above, respectively, the no significant effect threshold defined as 30% inhibition at 10 μg/mL at the time point indicated)
